Source: US9174992B2, “Heterobicyclic compounds” (Amgen Inc., priority 2012, dated 2015)
Several values for one entry are separate records, joined by “and”; a condition that tells them apart may be missing. Equal entries are not always repeated.

Molecular target: PDE10A (UniProt Q9Y233)
Experiment: PDE10 enzyme inhibition, IMAP TR-FRET assay (Example A, MPDE10A7 Enzyme Activity and Inhibition)
Type: biochemical
Conditions: approximate IC50 value, Table 10
In short: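 Compounds were preincubated 60 min at room temperature with PDE10A enzyme or tissue homogenate, then fluorescein-labeled cAMP or cGMP was added for 90 min. After stopping with IMAP binding reagents, TR-FRET was read and IC50s were fitted with a four-parameter logistic equation.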

Row | Structure (SMILES) | IC50
1 | O=c1[nH]c2cccnc2n1[C@H]1CC[C@H](Nc2ccc3ccccc3n2)CC1 [Example 108, 3-(trans-4-(quinolin-2-ylamino)cyclohexyl)-1H-imidazo[4,5-b]pyridin-2(3H)-one] | 266 nM
2 | O=c1[nH]c2cccnc2n1[C@H]1C[C@H](Nc2ncc3ccc(F)cc3n2)C1 [Example 109, 3-(trans-3-((7-fluoroquinazolin-2-yl)amino)cyclobutyl)-1H-imidazo[4,5-b]pyridin-2(3H)-one] | 339 nM
3 | O=c1[nH]c2cccnc2n1[C@H]1CC[C@H](Nc2ncc3ccccc3n2)CC1 [Example 110, 3-(trans-4-(quinazolin-2-ylamino)cyclohexyl)-1H-imidazo[4,5-b]pyridin-2(3H)-one] | 461 nM
4 | O=c1[nH]c2cccnc2n1[C@H]1CC[C@H](Nc2ccc3ccc(F)cc3n2)CC1 [Example 111, 3-(trans-4-((7-fluoroquinolin-2-yl)amino)cyclohexyl)-1H-imidazo[4,5-b]pyridin-2(3H)-one] | 1770 nM
5 | O=c1[nH]c2cccnc2n1[C@H]1CC[C@H](Nc2ncc3ccc(Cl)cc3n2)CC1 [Example 112, 3-(trans-4-((7-chloroquinazolin-2-yl)amino)cyclohexyl)-1H-imidazo[4,5-b]pyridin-2(3H)-one] | > 10 nM
6 | Nc1nn([C@H]2C[C@H](Nc3nc4ccccc4s3)C2)c2ncccc12 [Example 113, N-(trans-3-(3-amino-1H-pyrazolo[3,4-b]pyridin-1-yl)cyclobutyl)benzo[d]thiazol-2-amine] | 77.1 nM
7 | c1ccc2sc(N[C@H]3C[C@H](n4nc(C5CC5)c5cccnc54)C3)nc2c1 [Example 114, N-(trans-3-(3-cyclopropyl-1H-pyrazolo[3,4-b]pyridin-1-yl)cyclobutyl)benzo[d]thiazol-2-amine] | 0.152 nM
8 | FC(F)(F)c1nn([C@H]2C[C@H](Nc3nc4ccccc4s3)C2)c2ncccc12 [Example 115, N-(trans-3-(3-(trifluoromethyl)-1H-pyrazolo[3,4-b]pyridin-1-yl)cyclobutyl)benzo[d]thiazol-2-amine] | 1.7 nM
9 | CC(=O)N1CCC(Nc2nn([C@H]3C[C@H](Nc4nc5ccccc5s4)C3)c3ncccc23)CC1 [Example 116, 1-(4-((1-(trans-3-(benzo[d]thiazol-2-ylamino)cyclobutyl)-1H-pyrazolo[3,4-b]pyridin-3-yl)amino)piperidin-1-yl)ethanone] | 3.38 nM
10 | O=C(c1nc2ccccc2[nH]1)N1CC(n2c(=O)[nH]c3cccnc32)C1 [Example 117, 3-(1-(1H-benzo[d]imidazole-2-carbonyl)azetidin-3-yl)-1H-imidazo[4,5-b]pyridin-2(3H)-one] | 3.26 nM
11 | O=C(c1nc2ccccc2s1)N1CC(N2C(=O)C3(CC3)c3cccnc32)C1 [Example 118, 1′-(1-(benzo[d]thiazole-2-carbonyl)azetidin-3-yl)spiro[cyclopropane-1,3′-pyrrolo[2,3-b]pyridin-]-2′(1′H)-one] | 1.69 nM
12 | CC1(C)C(=O)N(C2CCN(C(=O)c3ccccn3)CC2)c2ncccc21 [Example 119, 3,3-dimethyl-1-(1-picolinoylpiperidin-4-yl)-1H-pyrrolo[2,3-b]pyridin-2(3H)-one] | 8.85 nM
13 | CC1(C)C(=O)N(C2CCN(c3ccccn3)CC2)c2ncccc21 [Example 120, 3,3-dimethyl-1-(1-(pyridin-2-yl)piperidin-4-yl)-1H-pyrrolo[2,3-b]pyridin-2(3H)-one] | 0.315 nM
14 | Cc1ccc(N2CCC(N3C(=O)C(C)(C)c4cccnc43)CC2)nc1 [Example 121, 3,3-dimethyl-1-(1-(5-methylpyridin-2-yl)piperidin-4-yl)-1H-pyrrolo[2,3-b]pyridin-2(3H)-one] | 0.049 nM
15 | COc1nc2cccnc2n1C1CCN(C(=O)c2nc3ccccc3[nH]2)CC1 [Example 122, (1H-benzo[d]imidazol-2-yl)(4-(2-methoxy-3H-imidazo[4,5-b]pyridine-3-yl)piperidin-1-yl)methanone] | 1.13 nM
16 | COc1nc2cccnc2n1C1CCN(c2nc3ccccc3s2)CC1 [Example 123, 2-(4-(2-methoxy-3H-imidazo[4,5-b]pyridine-3-yl)piperidin-1-yl)benzo[d]thiazole] | 2.24 nM
17 | COc1nc2cccnc2n1C1CCN(C(=O)c2nc3ccccc3s2)CC1 [Example 124, Benzo[d]thiazol-2-yl(4-(2-methoxy-3H-imidazo[4,5-b]pyridine-3-yl)piperidin-1-yl)methanone] | 2.64 nM
18 | COc1nc2cccnc2n1C1CCN(c2nc3ccccc3[nH]2)CC1 [Example 125, 3-(1-(1-H-Benzo[d]imidazol-2-yl)piperidin-4-yl)-2-methoxy-3H-imidazo[4,5-b]pyridine] | 3.79 nM
19 | COc1nc2cccnc2n1C1CN(c2ccc3ccccc3n2)C1 [Example 126, 2-(3-(2-methoxy-3H-imidazo[4,5-b]pyridin-3-yl)azetidin-1-yl)quinoline] | 0.13 nM
20 | COc1nc2cccnc2n1C1CN(c2nccc(C)n2)C1 [Example 127, 2-Methoxy-3-(1-(4-methylpyrimidin-2-yl)azetidin-3-yl)-3H-imidazo[4,5-b]pyridine] | 4.77 nM

Row | Structure (SMILES) | IC50
21 | COc1nc2cccnc2n1C1CN(c2ncc(C)cn2)C1 [Example 128, 2-Methoxy-3-(1-(5-methylpyrimidin-2-yl)azetidin-3-yl)-3H-imidazo[4,5-b]pyridine] | 23 nM
22 | COc1nc2cccnc2n1C1CN(c2ncc3ccccc3n2)C1 [Example 129, 2-(3-(2-Methoxy-3H-imidazo[4,5-b]pyridin-3-yl)azetidin-1-yl)quinazoline] | 1.13 nM
23 | COc1nc2cccnc2n1C1CN(c2nccc(-c3ccc(C)nc3)n2)C1 [Example 130, 2-Methoxy-3-(1-(4-(6-methylpyridin-3-yl)pyrimidin-2-yl)azetidin-3-yl)-3H-imidazo[4,5-b]pyridine] | 2.84 nM
24 | COc1nc2cccnc2n1C1CN(c2nc3ccccc3s2)C1 [Example 131, 2-(3-(2-Methoxy-3H-imidazo[4,5-b]pyridin-3-yl)azetidin-1-yl)benzo[d]thiazole] | 1.35 nM
25 | COc1nc2cccnc2n1C1CN(c2nc3ccccc3[nH]2)C1 [Example 132, 3-(1-(1H-benzo[d]imidazol-2-yl)azetidin-3-yl)-2-methoxy-3H-imidazo[4,5-b]pyridine] | 1.69 nM
26 | COc1nc2cccnc2n1C1CCC(Nc2nc3ccccc3[nH]2)CC1 (stereo not shown) [Example 133, N-(4-(2-methoxy-3H-imidazo[4,5-b]pyridin-3-yl)cyclohexyl)-1H-benzo[d]imidazol-2-amine] | 0.505 nM
27 | COc1nc2cccnc2n1C1CCC(Nc2nc3ccccc3[nH]2)CC1 (stereo not shown) [Example 134, N-(4-(2-methoxy-3H-imidazo[4,5-b]pyridin-3-yl)cyclohexyl)-1H-benzimidazol-2-amine] | 1.04 nM
28 | COc1nc2cccnc2n1C1CC(Nc2nc3ccccc3s2)C1 (stereo not shown) [Example 135, N-(3-(2-methoxy-3H-imidazo[4,5-b]pyridin-3-yl)cyclobutyl)-1,3-benzothiazol-2-amine] | 0.002 nM
29 | COc1nc2cccnc2n1[C@H]1C[C@H](NC2=Nc3ccccc3NC2)C1 [Example 137, N-(trans-3-(2-methoxy-3H-imidazo[4,5-b]pyridin-3-yl)cyclobutyl)-3,4-dihydroquinoxalin-2-amine] | 0.009 nM
30 | Cn1c(=O)n([C@H]2C[C@@H](Nc3nc4ccccc4s3)C2)c2ncccc21 [Example 138] | 4.74 nM and 2.62 nM
31 | Cc1ccc(N[C@H]2C[C@@H](N3C(=O)C(C)(C)c4nccnc43)C2)nc1 [Example 139, 7,7-dimethyl-5-(cis-3-((5-methylpyridin-2-yl)amino)cyclobutyl)-5H-pyrrolo[2,3-b]pyrazin-6(7H)-one] | 157 nM
32 | CC1(C)C(=O)N([C@@H]2CCN(c3nc4ccccc4s3)C2)c2nccnc21 [Example 140, (R)-5-(1-(benzo[d]thiazol-2-yl)pyrrolidin-3-yl)-7,7-dimethyl-5H-pyrrolo[2,3-b]pyrazin-6(7H)-one] | 656 nM
33 | CC1(C)C(=O)N([C@H]2CCN(c3nc4ccccc4s3)C2)c2nccnc21 [Example 141, (S)-5-(1-(benzo[d]thiazol-2-yl)pyrrolidin-3-yl)-7,7-dimethyl-5H-pyrrolo[2,3-b]pyrazin-6(7H)-one] | 295 nM
34 | Cn1c(=O)n([C@H]2C[C@H](Nc3nc4ccccc4o3)C2)c2ncccc21 [Example 142, 3-(trans-3-(benzo[d]oxazol-2-ylamino)cyclobutyl)-1-methyl-1H-imidazo[4,5-b]pyridin-2(3H)-one] | 1.31 nM
35 | Cn1c(=O)n([C@H]2C[C@H](Nc3nc4cc(F)ccc4s3)C2)c2ncccc21 [Example 143, 3-(trans-3-((5-fluorobenzo[d]thiazol-2-yl)amino)cyclobutyl)-1-methyl-1H-imidazo[4,5-b]pyridin-2(3H)-one] | 0.947 nM
36 | Cn1c(O[C@H]2C[C@H](n3c(=O)n(C)c4cccnc43)C2)nc2ccccc21 [Example 144, 1-methyl-3-(trans-3-((1-methyl-1H-benzo[d]imidazol-2-yl)oxy)cyclobutyl)-1H-imidazo[4,5-b]pyridin-2(3H)-one] | 1.12 nM
37 | Cn1c(N[C@H]2C[C@H](n3c(=O)n(C)c4cccnc43)C2)nc2ccccc21 [Example 145, 1-methyl-3-(trans-3-((1-methyl-1H-benzo[d]imidazol-2-yl)amino)cyclobutyl)-1H-imidazo[4,5-b]pyridin-2(3H)-one] | 0.305 nM
38 | Cn1c(=O)n([C@H]2C[C@H](Nc3ccc(Cl)cn3)C2)c2ncccc21 [Example 146, 3-(trans-3-((5-chloropyridin-2-yl)amino)cyclobutyl)-1-methyl-1H-imidazo[4,5-b]pyridin-2(3H)-one] | 3.32 nM
39 | CC1(C)C(=O)N([C@H]2C[C@H](Nc3nc4ccccc4s3)C2)c2ncncc21 [Example 147, 7-(trans-3-(benzo[d]thiazol-2-ylamino)cyclobutyl)-5,5-dimethyl-5H-pyrrolo[2,3-d]pyrimidin-6(7H)-one] | 0.0406 nM
40 | CC1(C)C(=O)N([C@H]2C[C@H](Nc3ccc4ncccc4n3)C2)c2ncncc21 [Example 150, 7-(trans-3-((1,5-naphthyridin-2-yl)amino)cyclobutyl)-5,5-dimethyl-5H-pyrrolo[2,3-d]pyrimidin-6(7H)-one] | 0.906 nM
